From article PMC6095626, “Screening of the Pathogen Box for inhibitors with dual efficacy against Giardia lamblia and Cryptosporidium parvum” (PLoS Neglected Tropical Diseases, 2018)

Experiments:
[1] = tested on: C. parvum (UGA1 Nluc expressing strain in HCT-8 cells); assay: microbe, parasite or virus in culture; type: cell-based, Cryptosporidium parvum; settings: for Crypto (10 uM) Mean % inhibition: initial Pathogen Box screen, single concentration 10 µM, inhibition compared to DMSO wells
Method in brief: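 Parasite growth quantified by NanoLuc luminescence from lysed infected HCT-8 cells, with EC50 fitted from dose curves. Compounds, single-dose 10 μM or serially diluted, were added to confluent 48 h monolayers before infection with bleached UGA1 Nluc oocysts.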

[2] = tested on: G. lamblia trophozoites (luciferase expressing, WBC6); assay: microbe, parasite or virus in culture; type: cell-based, Giardia lamblia; settings: for Giardia (16 uM) Mean % inhibition: initial Pathogen Box screen, single concentration 16 µM, inhibition compared to DMSO wells
Method in brief: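 Incubation ran 24 h at 37 °C under anaerobic conditions, with compound added in equal volume to trophozoites (WBC6, luciferase-expressing, 250,000 cells/mL). Bioluminescence was the read-out, cross-checked by MOXI Z counts on a duplicate plate; metronidazole served as control (1:2 dilutions from 40 μM).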

CCCS(=O)(=O)N1CCC(CO)(Cc2ccccc2C(F)(F)F)CC1 [MMV001059]
Crypto (10 uM) Mean % inhibition [1]: X* (Mean or standard deviation are negative but not significantly different from the control to be a growth promoter) | Giardia (16 uM) Mean % inhibition [2]: 10%

CC1(C)Cc2c(c(N3CCOCC3)nc3snc(Br)c23)CO1 [MMV687794]
Crypto (10 uM) Mean % inhibition [1]: X* (Mean or standard deviation are negative but not significantly different from the control to be a growth promoter) | Giardia (16 uM) Mean % inhibition [2]: 17%

CN1CCN(c2cc(-c3ccc(F)cc3)nc(-c3ccncc3)n2)CC1 [MMV688888]
Crypto (10 uM) Mean % inhibition [1]: 84% | Giardia (16 uM) Mean % inhibition [2]: 62%

CNC(=O)CNc1nc(-c2ccccn2)nc2scc(-c3ccccc3)c12 [MMV1029203]
Crypto (10 uM) Mean % inhibition [1]: 21% | Giardia (16 uM) Mean % inhibition [2]: 4%

O=C(NCc1cc(Cl)cc(Cl)c1)c1c(C(F)(F)F)nc2ccccn12 [MMV687699]
Crypto (10 uM) Mean % inhibition [1]: 32% | Giardia (16 uM) Mean % inhibition [2]: 16%

CC1(C)OB(O)c2ccc(C3=NOC(c4cc(Cl)c(F)c(Cl)c4)(C(F)(F)F)C3)cc21 (centres unmarked) [MMV687775]
Crypto (10 uM) Mean % inhibition [1]: 56% | Giardia (16 uM) Mean % inhibition [2]: X* (Mean or standard deviation are negative but not significantly different from the control to be a growth promoter)

COc1ccc(C(=N)N)cc1-c1cn(-c2ccc(C(=N)N)cc2)nn1 [MMV675998]
Crypto (10 uM) Mean % inhibition [1]: X* (Mean or standard deviation are negative but not significantly different from the control to be a growth promoter) | Giardia (16 uM) Mean % inhibition [2]: 30%

CC1=Nc2ccc(Cl)cc2C(c2ccccc2)N1CCNC(=O)CN(C)C (centres unmarked) [MMV688410]
Crypto (10 uM) Mean % inhibition [1]: 62% | Giardia (16 uM) Mean % inhibition [2]: 20%

CCN(CC)S(=O)(=O)c1ccc(Cl)c(C(=O)Nc2ccc3nc(C)sc3c2)c1 [MMV019721]
Crypto (10 uM) Mean % inhibition [1]: 82% | Giardia (16 uM) Mean % inhibition [2]: 15%

FC(F)(F)c1cccc(-c2nc3c(NCc4ccncc4)nccc3[nH]2)c1 [MMV032967]
Crypto (10 uM) Mean % inhibition [1]: 27% | Giardia (16 uM) Mean % inhibition [2]: 26%

Nc1ncc(-c2cn[nH]c2)cc1-c1nc2cc(Cl)cnc2[nH]1 [MMV023370]
Crypto (10 uM) Mean % inhibition [1]: X* (Mean or standard deviation are negative but not significantly different from the control to be a growth promoter) | Giardia (16 uM) Mean % inhibition [2]: 38%

c1ccc(Oc2ccc(-c3cc(N4CCOCC4)n[nH]3)cc2)cc1 [MMV045105]
Crypto (10 uM) Mean % inhibition [1]: 19% | Giardia (16 uM) Mean % inhibition [2]: 16%

CC(Oc1ccccc1)C(=O)Nc1nc(-c2ccccn2)cs1 (centres unmarked) [MMV676411]
Crypto (10 uM) Mean % inhibition [1]: 86% | Giardia (16 uM) Mean % inhibition [2]: 16%

O=C(Nc1nc(-c2ccccn2)cs1)C1CC1c1ccccc1F (centres unmarked) [MMV1028806]
Crypto (10 uM) Mean % inhibition [1]: 91% | Giardia (16 uM) Mean % inhibition [2]: X* (Mean or standard deviation are negative but not significantly different from the control to be a growth promoter)

c1ccc(-c2[nH]c3ccccc3c2C(c2ccccn2)N2CCCC2)cc1 (centres unmarked) [MMV688762]
Crypto (10 uM) Mean % inhibition [1]: X* (Mean or standard deviation are negative but not significantly different from the control to be a growth promoter) | Giardia (16 uM) Mean % inhibition [2]: 22%

Nc1cccnc1Nc1ccc(Cl)cc1 [MMV676524]
Crypto (10 uM) Mean % inhibition [1]: 83% | Giardia (16 uM) Mean % inhibition [2]: 26%

Cc1cc2nc(NC(=O)C(C)(C)C)nc(Cl)c2n1Cc1ccc(Cl)cc1 [MMV688704]
Crypto (10 uM) Mean % inhibition [1]: 76% | Giardia (16 uM) Mean % inhibition [2]: 42%

CNC1C(OC2C(OC3C(O)C(O)C(N=C(N)N)C(O)C3N=C(N)N)OC(C)C2(O)C=O)OC(CO)C(O)C1O (centres unmarked) [MMV688994]
Crypto (10 uM) Mean % inhibition [1]: 47% | Giardia (16 uM) Mean % inhibition [2]: X* (Mean or standard deviation are negative but not significantly different from the control to be a growth promoter)

O=C(c1n[nH]c2c1CCCC2)N1CCN(Cc2ccc3c(c2)OCO3)CC1 [MMV676389]
Crypto (10 uM) Mean % inhibition [1]: X* (Mean or standard deviation are negative but not significantly different from the control to be a growth promoter) | Giardia (16 uM) Mean % inhibition [2]: 66%

CC(C(=O)N1CCCC1)N1CCN(S(=O)(=O)c2ccc(C(C)(C)C)cc2)CC1 (centres unmarked) [MMV020291]
Crypto (10 uM) Mean % inhibition [1]: 61% | Giardia (16 uM) Mean % inhibition [2]: 13%

O=C(Nc1cccc(Cl)c1)c1cnc(N2CCN(c3ccncc3)CC2)c(Cl)c1 [MMV024406]
C. parvum EC50 ([1]; Nluc C. parvum in HCT-8 cells, 48 hours): not potent | Crypto (10 uM) Mean % inhibition [1]: 91% | Giardia (16 uM) Mean % inhibition [2]: 91%

CC1CC1C(=O)NC1CCN(CC2(c3ccccc3)CCCCC2)CC1 (centres unmarked) [MMV020120]
Crypto (10 uM) Mean % inhibition [1]: 66% | Giardia (16 uM) Mean % inhibition [2]: 2.27%

Cn1c(=O)c2c(S(C)(=O)=O)snc2n(C)c1=O [MMV687251]
Crypto (10 uM) Mean % inhibition [1]: 76% | Giardia (16 uM) Mean % inhibition [2]: 7.44%

O=C(C1CCCCC1)N1CC(=O)N2CCc3ccccc3[C@@H]2C1 [MMV002529]
Crypto (10 uM) Mean % inhibition [1]: 55% | Giardia (16 uM) Mean % inhibition [2]: 16%

Cc1nnc(NC(=O)c2cn(-c3ccccc3)nc2-c2ccccc2C)o1 [MMV020320]
Crypto (10 uM) Mean % inhibition [1]: 91% | Giardia (16 uM) Mean % inhibition [2]: X* (Mean or standard deviation are negative but not significantly different from the control to be a growth promoter)

Nc1nccc2ccc(-c3ccc4nccn4c3)cc12 [MMV023233]
Crypto (10 uM) Mean % inhibition [1]: X* (Mean or standard deviation are negative but not significantly different from the control to be a growth promoter) | Giardia (16 uM) Mean % inhibition [2]: 85%

O[C@@H](c1cc(C(F)(F)F)nc2c(C(F)(F)F)cccc12)[C@H]1CCCCN1 [MMV000016]
Crypto (10 uM) Mean % inhibition [1]: 77% | Giardia (16 uM) Mean % inhibition [2]: 16%

NCCN(C(=O)c1ccc(Cl)cc1Cl)c1ccc(OCc2ccc(Cl)cc2)cc1 [MMV688371]
Crypto (10 uM) Mean % inhibition [1]: 76% | Giardia (16 uM) Mean % inhibition [2]: 72%

COCC(C)NC(=O)CSc1ncnc2sc(-c3ccccc3)cc12 (centres unmarked) [MMV676536]
Crypto (10 uM) Mean % inhibition [1]: X* (Mean or standard deviation are negative but not significantly different from the control to be a growth promoter) | Giardia (16 uM) Mean % inhibition [2]: 15%

COc1ccc(-c2onc(C(F)(F)F)c2-c2ccc(Cl)cc2)c(O)c1 [MMV688766]
Crypto (10 uM) Mean % inhibition [1]: X* (Mean or standard deviation are negative but not significantly different from the control to be a growth promoter) | Giardia (16 uM) Mean % inhibition [2]: 29%

O=C([C@@H](c1ccc(Cl)cc1)c1cccnc1)N1CCN(c2ccc(C(F)(F)F)cc2)CC1 [MMV689244]
Crypto (10 uM) Mean % inhibition [1]: X* (Mean or standard deviation are negative but not significantly different from the control to be a growth promoter) | Giardia (16 uM) Mean % inhibition [2]: 33%

CC(Oc1cccc(Cl)c1)C(=O)Nc1ccc2oc(-c3ccncc3)nc2c1 (centres unmarked) [MMV688472]
Crypto (10 uM) Mean % inhibition [1]: X* (Mean or standard deviation are negative but not significantly different from the control to be a growth promoter) | Giardia (16 uM) Mean % inhibition [2]: 55%

CCC(Sc1nc2ccccc2o1)C(=O)Nc1nccs1 (centres unmarked) [MMV676383]
Crypto (10 uM) Mean % inhibition [1]: 57% | Giardia (16 uM) Mean % inhibition [2]: 88%

O=C(Nc1nc(-c2ccccn2)cs1)c1cncn1-c1ccccc1 [MMV676512]
Crypto (10 uM) Mean % inhibition [1]: 93% | Giardia (16 uM) Mean % inhibition [2]: 10%

COc1ccc(Cl)cc1NC(=O)CN(C)C(=O)c1cnn(-c2ccccc2)n1 [MMV020710]
Crypto (10 uM) Mean % inhibition [1]: 43% | Giardia (16 uM) Mean % inhibition [2]: 7.5%

O=C1N(Cc2cc3ccccc3s2)CC2CN(Cc3ccccc3)CCN12 (centres unmarked) [MMV084603]
Crypto (10 uM) Mean % inhibition [1]: 43% | Giardia (16 uM) Mean % inhibition [2]: 62%

CC(C)NCC(=O)Nc1cccc(C(=O)Nc2cccc(C(F)(F)F)c2)c1 [MMV020165]
Crypto (10 uM) Mean % inhibition [1]: 45% | Giardia (16 uM) Mean % inhibition [2]: 81%

O=C(Nc1cccc(-c2ccc(NCCCN3CCCC3)nc2)c1)c1ccccc1 [MMV023953]
Crypto (10 uM) Mean % inhibition [1]: X* (Mean or standard deviation are negative but not significantly different from the control to be a growth promoter) | Giardia (16 uM) Mean % inhibition [2]: 82%

c1coc(CNc2nc(N3CCCCC3)nc3ccccc23)c1 [MMV676401]
Crypto (10 uM) Mean % inhibition [1]: 48% | Giardia (16 uM) Mean % inhibition [2]: 76%

Clc1cccc(C(c2ccc(CN3CCNCC3)cc2)n2ccnc2)c1 (centres unmarked) [MMV663250]
Crypto (10 uM) Mean % inhibition [1]: 52% | Giardia (16 uM) Mean % inhibition [2]: 14%

Clc1cccc(CO[C@H]2CCc3ccccc3[C@@H]2n2ccnn2)c1 [MMV676159]
Crypto (10 uM) Mean % inhibition [1]: X* (Mean or standard deviation are negative but not significantly different from the control to be a growth promoter) | Giardia (16 uM) Mean % inhibition [2]: 30%

Cc1nc(-c2cccc(NCc3ccccc3)c2)[nH]c1C [MMV023227]
Crypto (10 uM) Mean % inhibition [1]: 25% | Giardia (16 uM) Mean % inhibition [2]: 58%

Cc1ccc(S(=O)(=O)n2cc(-c3ccnc(N)c3)c3cc(Br)cnc32)cc1 [MMV024114]
Crypto (10 uM) Mean % inhibition [1]: 86% | Giardia (16 uM) Mean % inhibition [2]: 78% | G. lamblia EC50 ([2]; luciferase expressing G. lamblia trophozoites, 24 hours, D-luciferin bioluminescence read-out): not potent

Cc1cccc(Cn2ccc(NC(=O)c3ccc4c(c3)OCO4)n2)c1 [MMV676386]
Crypto (10 uM) Mean % inhibition [1]: 53% | Giardia (16 uM) Mean % inhibition [2]: 57%

CCCc1ccc(S(=O)(=O)Nc2ccc(CN3CCN(CC4CC4)CC3)cc2)cc1 [MMV688125]
Crypto (10 uM) Mean % inhibition [1]: 50% | Giardia (16 uM) Mean % inhibition [2]: 59%

CCc1cc(=O)n(C)c(SC(C)C(=O)Nc2ccc(F)cc2)n1 (centres unmarked) [MMV688980]
Crypto (10 uM) Mean % inhibition [1]: X* (Mean or standard deviation are negative but not significantly different from the control to be a growth promoter) | Giardia (16 uM) Mean % inhibition [2]: 17%

O=C1COCc2ccc(Br)cc2N1Cc1ccc(C(F)(F)F)cc1 [MMV032995]
Crypto (10 uM) Mean % inhibition [1]: 41% | Giardia (16 uM) Mean % inhibition [2]: 38%

COc1cccc(OC)c1C(=O)Nc1ccc(Cl)c(-c2nc3ccccc3s2)c1 [MMV676472]
Crypto (10 uM) Mean % inhibition [1]: X* (Mean or standard deviation are negative but not significantly different from the control to be a growth promoter) | Giardia (16 uM) Mean % inhibition [2]: 28%
